From patent US20240174665A1, “CDK2 INHIBITORS AND USES THEREOF” (Kymera Therapeutics, Inc., priority 2022, published 2024)
pIC50: −log10 of the molar value.

target: T1, CDK2/CycE1 (Homo sapiens, UniProt P24941); assay: CDK2 inhibition assay, PhosphoSens CSox-based Kinetic Assay Format (AssayQuant); type: biochemical; settings: 1.5 nM CDK2/CycE1, 1.5× Km ATP, 30 minute preincubation at 30° C., reaction 240 minutes; read-out: IC50 CDK2-CycE1 (AssayQuant) Using PhosphoSens ® CSox-based Kinetic Assay Format
T1 construct: 1.5 nM CDK2/CycE1, amino acids 1-298/1-410, Carna BS; purchased Carna BS (Carna Biosciences) 04-165, lot 20CBS-0731B
Procedure: Inhibition of CDK2 was measured using PhosphoSens® CSox-based Kinetic Assay Format (AssayQuant Technologies) as follows:
• 2.5 μl 10× Inhibitor in 10% DMSO (3-fold titration in 10% DMSO for a final DMSO concentration of 1%) • […] Reaction Mix with ATP, DTT, & CSx Substrate • 30 minute preincubation at 30° C. • […] Enzyme dilution buffer (EDB) (1×) or Kinase (5× in EDB); Enzyme Dilution Buffer (EDB): 20 mM HEPES, pH 7.5, 0.01% Brij-35, 0.1 mM EGTA, 5% Glycerol, 1.0 mg/ml BSA, 1.0 mM DTT • 25 μL Final reaction volume • Reaction was run at 30° C. for 240 minutes
• 54 mM HEPES, pH 7.5 • 1.5× Km ATP (see ATP TAB) • 1.2 mM DTT • 0.012% Brij-35 • 0.52 mM EGTA • 1% glycerol • 0.2 mg/ml BSA • 10 mM MgCl2 • 15 μM AQT0297
Reactions were run in Corning, low volume 384-well, white flat round bottom polystyrene NBS microplates (Cat. #3824) after sealing using optically-clear adhesive film (TopSealA-Plus plate seal, PerkinElmer [Cat. #6050185])
The letter codes for CDK2 inhibition include: A (<100 nM), B (≥100-500 nM), C (>500-1000 nM), and D (>1000 nM).

Row | Compound | pIC50
1 | Cn1cc(S(=O)(=O)N2CCC(Nc3ncc4c(n3)N(C3CCCC3)C(=O)C43CC3)CC2)cn1 [I-255] | > 7.00
2 | Cc1cc(S(=O)(=O)C2CCC3(CC2)CN(C)C3)ccc1Nc1ncc2cc(Cl)c(=O)n(C3CCCC3)c2n1 [I-41] | > 7.00
3 | CCS(=O)(=O)c1ccc(Nc2ncc(C(F)(F)F)c(-c3cn(C(C)C)c(C)n3)n2)c(C)c1 [I-44] | > 7.00
4 | CNS(=O)(=O)c1ccc(Nc2nc(OC3CCCCC3)c3ncsc3n2)c(C)c1 [I-234] | < 6.00
5 | Cc1cc(CS(C)(=O)=O)ccc1Nc1ncc2cc(Cl)c(=O)n(C(C)C)c2n1 [I-197] | < 6.00
6 | COC1CC2(CCC(Nc3ncc4cc(Cl)c(=O)n(C5CCCC5)c4n3)CC2)C1 (stereo not drawn) [I-239] | < 6.00
7 | CNS(=O)(=O)c1cc(C)c(Nc2ncc3cc(Cl)c(=O)n(C(C)C)c3n2)cn1 [I-213] | 6.30 to 7.00
8 | CCS(=N)(=O)c1ccc(Nc2ncc3cc(Cl)c(=O)n(C(C)C)c3n2)c(C)c1 (stereo not drawn) [I-208] | 6.30 to 7.00
9 | Cn1cc(S(=O)(=O)N2CCC(Nc3ncc4c(n3)N([C@@H]3CCC[C@@]3(C)O)C(=O)C43CC3)CC2)cn1 [I-254] | > 7.00
10 | Cc1cc(CS(C)(=N)=O)ccc1Nc1ncc2cc(Cl)c(=O)n(C(C)C)c2n1 (stereo not drawn) [I-207] | 6.30 to 7.00
11 | CCS(=O)(=O)c1ccc(Nc2ncc(C(F)(F)F)c([C@H]3CC[C@@](C)(O)CC3)n2)c(C)c1 [I-40] | < 6.00
12 | CC(=O)N1CCC(Nc2ncc3cc(Cl)c(=O)n(C(C)C)c3n2)CC1 [I-235] | 6.00 to 6.30
13 | COCc1cc(-c2ccc(Nc3ncc4cc(Cl)c(=O)n(C(C)C)c4n3)c(C)c2)n(C)n1 [I-210] | < 6.00
14 | CC(C)c1cccc2cnc(NC3CCN(S(C)(=O)=O)CC3)nc12 [I-215] | > 7.00
15 | CCS(=O)(=O)c1ccc(Nc2ncc(C(F)(F)F)c([C@H]3CC[C@](C)(O)CC3)n2)c(C)c1 [I-43] | < 6.00
16 | CCS(=O)(=O)c1ccc(Nc2nccc(-c3cnc(C)n3C(C)C)n2)c(C)c1 [I-29, N-(4-ethylsulfonyl-2-methyl-phenyl)-4-(3-isopropyl-2-methyl-imidazol-4-yl) pyrimidin-2-amine] | 6.30 to 7.00
17 | CNS(=O)(=O)c1ccc(Nc2nccc(-c3cnc(C)n3C(C)C)n2)c(C)c1 [I-269] | > 7.00
18 | CNS(=O)(=O)c1ccc(Nc2ncc(C(F)(F)F)c(-c3cnc(C)n3C(C)C)n2)c(C)c1 [I-265] | 6.30 to 7.00
19 | CCS(=O)(=O)c1ccc(Nc2ncc(C(F)(F)F)c(-c3cnn(C)c3)n2)c(C)c1 [I-27, N-(4-ethylsulfonyl-2-methyl-phenyl)-4-(1-methylpyrazol-4-yl)-5-(trifluoromethyl) pyrimidin-2-amine] | > 7.00
20 | CC(=O)N(c1ccc(-c2cnn(C)c2)cc1)[C@H]1CC[C@H](Nc2ncc3cc(Cl)c(=O)n(C(C)C)c3n2)CC1 [I-228] | 6.30 to 7.00
21 | CNS(=O)(=O)c1ccc(Nc2ncc3cc(Cl)c(=O)n(C(C)C)c3n2)c(C)n1 [I-218] | 6.30 to 7.00
22 | CCS(=O)(=O)c1ccc(Nc2ncc3c(n2)N(C2CCCC2)C(=O)C32CC2)c(C)c1 [I-35] | > 7.00
23 | Cc1cc(S(N)(=O)=O)ccc1Nc1ncc(C(F)(F)F)c(-c2cnn(C)c2)n1 [I-272] | > 7.00
24 | CNS(=O)(=O)c1ccc(Nc2ncc(C(F)(F)F)c(-c3cn(C(C)C)c(C)n3)n2)c(C)c1 [I-266] | > 7.00
25 | CCS(=O)(=O)c1ccc(Nc2ncc(C(F)(F)F)c(-c3cnn(C)c3C(F)F)n2)c(C)c1 [I-45] | 6.00 to 6.30
26 | CC(C)(O)c1cccc2cnc(NC3CCN(S(C)(=O)=O)CC3)cc12 [I-212] | 6.30 to 7.00

More lines, now with the values ahead:

Row | pIC50 | Compound
27 | 6.00 to 6.30 | CNS(=O)(=O)c1ccc(Nc2ncc(C(F)(F)F)c(C3CCOCC3)n2)c(C)c1 [I-271]
28 | 6.30 to 7.00 | CNS(=O)(=O)c1ccc(Nc2ncc(C(F)(F)F)c(-c3cnn(C)c3C(F)F)n2)c(C)c1 [I-267]
29 | > 7.00 | CNS(=O)(=O)c1ccc(Nc2ncc3cc(Cl)c(=O)n(C(C)C)c3n2)c(C)c1 [I-247]
30 | 6.30 to 7.00 | CCS(=O)(=O)c1ccc(Nc2ncc3cc(Cl)c(=O)n(C(C)C)c3n2)c(C)c1 [I-30]
31 | < 6.00 | CNS(=O)(=O)c1ccc(Nc2ncc(C(F)(F)F)c(C3CCCCC3)n2)c(C)c1 [I-68]
32 | 6.00 to 6.30 | CCS(=O)(=O)c1ccc(Nc2ncc3cc(C(F)(F)F)c(=O)n(C4CCCC4)c3n2)c(C)c1 [I-53]
33 | > 7.00 | CNS(=O)(=O)c1ccc(Nc2ncc3cc(C(F)F)c(=O)n([C@@H]4CCC[C@@]4(C)O)c3n2)c(C)c1 [I-256]
34 | > 7.00 | CNS(=O)(=O)c1ccc(Nc2ncc(C(F)(F)F)c([C@H]3CC[C@@](C)(O)CC3)n2)c(C)c1 [I-67]
35 | > 7.00 | CCS(=O)(=O)c1ccc(Nc2ncc3cc(C(F)F)nc(N4CCCC4)c3n2)c(C)c1 [I-42]
36 | > 7.00 | CNS(=O)(=O)c1ccc(Nc2ncc3cc(C(F)F)c(=O)n(C4CCCC4)c3n2)c(C)c1 [I-242]
37 | < 6.00 | CCS(=O)(=O)c1ccc(Nc2ncc3cc(C(F)F)c(=O)n(C(C)C)c3n2)c(C)c1 [I-31]
38 | > 7.00 | CNS(=O)(=O)c1ccc(Nc2ncc3ccc(=O)n(C4CCCC4)c3n2)c(C)c1 [I-252]
39 | 6.30 to 7.00 | CCS(=O)(=O)c1ccc(Nc2ncc3cc(F)c(=O)n(C4CCCC4)c3n2)c(C)c1 [I-52]
